Structures can show the parent of a compound that is named as a salt.

The test deals with T1, VCAM-1/α4β1 integrin binding (Homo sapiens, UniProt P05556+P13612).
T1 construct: Jurkat (ATCC TIB-152), known to express integrin α4β1; endogenous in cells; host or cells: Jurkat (ATCC TIB-152)
T1 sequence (P13612 34-1032): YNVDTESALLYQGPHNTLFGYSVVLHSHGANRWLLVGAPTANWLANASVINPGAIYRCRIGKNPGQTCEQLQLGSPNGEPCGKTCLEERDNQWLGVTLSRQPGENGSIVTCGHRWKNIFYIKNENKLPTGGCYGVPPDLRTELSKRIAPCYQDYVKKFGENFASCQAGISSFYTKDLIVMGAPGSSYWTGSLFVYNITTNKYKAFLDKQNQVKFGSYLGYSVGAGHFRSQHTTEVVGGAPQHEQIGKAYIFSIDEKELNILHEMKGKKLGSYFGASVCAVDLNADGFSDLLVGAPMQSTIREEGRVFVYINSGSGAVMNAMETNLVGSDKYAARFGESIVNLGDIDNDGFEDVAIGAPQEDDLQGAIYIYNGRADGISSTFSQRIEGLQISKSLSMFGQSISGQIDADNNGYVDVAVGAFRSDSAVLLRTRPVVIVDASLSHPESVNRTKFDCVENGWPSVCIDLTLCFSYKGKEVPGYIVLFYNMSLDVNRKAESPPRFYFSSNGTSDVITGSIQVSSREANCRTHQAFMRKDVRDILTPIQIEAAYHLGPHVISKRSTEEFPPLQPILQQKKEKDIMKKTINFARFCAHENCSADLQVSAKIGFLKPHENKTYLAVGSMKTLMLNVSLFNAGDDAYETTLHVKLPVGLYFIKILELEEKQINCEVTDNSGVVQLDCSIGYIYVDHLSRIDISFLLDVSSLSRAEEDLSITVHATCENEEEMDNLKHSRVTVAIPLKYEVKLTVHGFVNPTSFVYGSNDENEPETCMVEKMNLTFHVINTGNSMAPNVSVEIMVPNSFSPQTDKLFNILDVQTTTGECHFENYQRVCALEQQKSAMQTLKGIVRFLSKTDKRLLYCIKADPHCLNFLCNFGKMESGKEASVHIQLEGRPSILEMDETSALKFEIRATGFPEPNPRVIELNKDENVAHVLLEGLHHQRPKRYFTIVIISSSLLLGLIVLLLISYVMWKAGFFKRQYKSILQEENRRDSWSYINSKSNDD
T1 sequence (P05556 21-798): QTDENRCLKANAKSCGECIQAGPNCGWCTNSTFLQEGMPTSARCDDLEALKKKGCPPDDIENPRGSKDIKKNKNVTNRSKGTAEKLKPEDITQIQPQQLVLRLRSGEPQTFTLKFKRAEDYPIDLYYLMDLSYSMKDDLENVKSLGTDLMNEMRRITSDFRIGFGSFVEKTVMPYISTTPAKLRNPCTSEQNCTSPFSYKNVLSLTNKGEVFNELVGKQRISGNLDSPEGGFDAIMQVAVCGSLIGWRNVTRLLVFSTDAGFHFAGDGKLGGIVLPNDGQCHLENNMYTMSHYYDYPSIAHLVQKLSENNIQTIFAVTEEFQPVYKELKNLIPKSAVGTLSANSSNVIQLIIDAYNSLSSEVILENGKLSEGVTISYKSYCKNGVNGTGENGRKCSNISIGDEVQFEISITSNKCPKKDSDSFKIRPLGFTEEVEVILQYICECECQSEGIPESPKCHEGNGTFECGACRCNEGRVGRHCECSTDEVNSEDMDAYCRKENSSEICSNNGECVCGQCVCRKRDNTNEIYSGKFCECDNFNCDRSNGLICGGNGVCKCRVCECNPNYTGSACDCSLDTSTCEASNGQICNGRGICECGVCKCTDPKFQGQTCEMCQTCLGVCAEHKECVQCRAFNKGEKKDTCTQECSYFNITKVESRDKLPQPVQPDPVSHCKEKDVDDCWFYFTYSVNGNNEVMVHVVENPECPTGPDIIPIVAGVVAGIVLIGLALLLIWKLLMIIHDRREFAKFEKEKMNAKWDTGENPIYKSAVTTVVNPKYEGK
As to the kind of experiment: Assay of antagonistic activity to VCAM-1/α4β1 integrin binding under the existence of blood serum (Jurkat cell adhesion to VCAM-1/Fc). The test is classed as cell-based. The settings on record: Jurkat cells, recombinant human VCAM-1/Fc, 50% human blood serum. The method, then:
Assay of Antagonistic Activity to VCAM-1/α4β1 Integrin Binding Under the Existence of Blood Serum
The capacity of a test substance antagonistic to the binding of cell strain of human T cells, Jurkat (ATCC TIB-152), known to express integrin α4β1, to VCAM-1 was determined.
Fifty μl/well of a solution (500 ng/ml) of recombinant human VCAM-1/Fc (R & D systems) diluted with buffer A (0.1 M NaHCO3, pH 9.6) was added to a 96-well microtiter plate (Nunc Maxisorp). After the incubation at 4° C. overnight and washing once with PBS, a buffer (buffer B) obtained by diluting Block Ace (Snow Brand Milk Products Co., Ltd.) with PBS to ½ concentration was added in an amount of 150 μl/well. After the incubation at room temperature for 2 hours, buffer B was removed and the plate was washed with PBS once.
Jurkat cells were washed with Dulbecco modified Eagle medium (SIGMA, hereinafter referred to as “DMEM”) once. Then, the cells were again suspended in a binding buffer (DMEM containing 20 mM HEPES, 0.1% BSA, 2 mM MnCl2 and 50% human blood serum (Sigma)) to become 1×10^6 cells/mL.
Sixty μl of a test substance of various concentrations obtained by the dilution with the binding buffer was added to a round-bottom, 96-well plate (IWAKI). Immediately thereafter, 60 μl of the Jurkat cells (1×10^6 cells/ml) were added thereto and shaken on a plate shaker (IKA-Labortechnik, IKA-SCHUTTLER MTS-4) at 1000 rpm for 10 seconds. In 120 μL of the cell suspension to which the test substance was added, each 100 μL thereof was transferred on the VCAM-1/Fc-coated plate and incubated in dark place at room temperature for 60 minutes. After the shaking on the plate shaker at 1000 rpm for 30 seconds, the solution was immediately removed. Then, the unbound cells were removed by washing them with PBS once. A buffer C (PBS containing 0.82% Triton X-100) was added to the plate in an amount of 70 μL/well. After the shaking on the plate shaker at 1000 rpm for 5 minutes, the bound Jurkat cells were lysed. After centrifuging the cells on a plate centrifuge (SIGMA 4-15C) at room temperature at 2500 rpm for 5 minutes, 50 μL of supernatant thereof was transferred to a 96-well microtiter plate (Nunc Maxisorp). Each 50 μL of Substrate Buffer (Promega, CytoTox 96 Non-Radioactive Cytotoxicity Assay) was added thereto, shaken on a plate shaker at 1000 rpm for 10 seconds and reacted in dark place at room temperature for 30 minutes. Then, each 50 μL of Stop Solution (Promega, CytoTox 96 Non-Radioactive Cytotoxicity Assay) was added thereto and shaken on a plate shaker at 1000 rpm for 10 seconds. […] The absorbance thus obtained detects an activity of lactate dehydrogenase (LDH) dissolved in the supernatant of each well. Namely, the absorbance is proportional to the number of remaining Jurkat cells on the plate via the binding to VCAM-1. The test was conducted in duplicate and the binding rate of each test substance in various concentrations was determined while the absorbance of the test substance-free well was determined to be 100% and the absorbance of the Jurkat-cell-free well was determined to be 0%. The concentration for the 50% inhibition of binding, IC50, was calculated.
The term IC50 denotes the midpoint of a concentration-inhibition curve. As to `CNCCc1cc2c(=O)n(-c3ccc(C[C@H](NC(=O)c4c(Cl)cccc4Cl)C(=O)O)cc3)c(=O)n(C)c2cc1F` [Example 229, N-(2,6-dichlorobenzoyl)-4-{7-fluoro-1-methyl-6-[2-(methylamino)ethyl]-2,4-dioxo-1,2,3,4-tetrahydroquinazoline-3(2H)-yl}-L-phenylalanine], the IC50 came out at 0.0147 µM.
As for `Cn1c(=O)n(-c2ccc(CC(NC(=O)c3c(Cl)cccc3Cl)C(=O)O)cc2)c(=O)c2cc(N3CCOCC3)ccc21` (centres unmarked) [Example 1], the half-maximal inhibitory concentration (IC50) was determined as 0.0017 µM.
To `CCc1nccn1-c1cc2c(cc1F)c(=O)n(-c1ccc(C[C@H](NC(=O)c3c(Cl)cccc3Cl)C(=O)O)cc1)c(=O)n2C` [Example 161] belongs 0.0165 µM; to `CN(C)C1CCN(c2ccc3c(c2)c(=O)n(-c2ccc(C[C@H](NC(=O)c4c(Cl)cccc4Cl)C(=O)O)cc2)c(=O)n3C)C1` (some centres unmarked) [Example 6], 0.0089 µM; to `Cc1nccn1-c1cc2c(cc1F)c(=O)n(-c1ccc(C[C@H](NC(=O)c3c(Cl)cccc3Cl)C(=O)O)cc1)c(=O)n2C` [Example 160], 0.0094 µM.
Regarding `Cn1c(=O)n(-c2ccc(C[C@H](NC(=O)c3c(Cl)cccc3Cl)C(=O)O)cc2)c(=O)c2cnccc21` [Example 64], the half-maximal inhibitory concentration (IC50) came out at 0.0123 µM.
For `Cn1ncc2c(=O)n(-c3ccc(C[C@H](NC(=O)c4c(Cl)cccc4Cl)C(=O)O)cc3)c(=O)n(C)c21` [Example 18], the IC50 was 0.0117 µM.
On to `CNCCCOc1ccc2c(c1)c(=O)n(-c1ccc(C[C@H](NC(=O)c3c(Cl)cccc3Cl)C(=O)O)cc1)c(=O)n2C` [Example 226], for which the concentration for half-maximal inhibition (IC50) is 0.0092 µM.
To `Cn1c(=O)n(-c2ccc(C[C@H](NC(=O)c3c(Cl)cccc3Cl)C(=O)O)cc2)c(=O)c2cc(CN3CCCC3)ccc21` [Example 56] belongs 0.0131 µM; to `CCN(CC)Cc1ccc2c(=O)n(-c3ccc(C[C@H](NC(=O)c4c(Cl)cccc4Cl)C(=O)O)cc3)c(=O)n(C)c2c1` [Example 146, N-(2,6-dichlorobenzoyl)-4-[1-methyl-7-diethylaminomethyl-2,4-quinazoline-dione-3-yl]-L-phenylalanine], 0.0079 µM; to `CCCNCc1ccc2c(c1)c(=O)n(-c1ccc(C[C@H](NC(=O)c3c(Cl)cccc3Cl)C(=O)O)cc1)c(=O)n2C` [Example 98], 0.0181 µM.
With `COCc1ccc2c(=O)n(-c3ccc(C[C@H](NC(=O)c4c(Cl)cccc4Cl)C(=O)O)cc3)c(=O)n(C)c2c1` [Example 63], the 50% inhibitory concentration (IC50) is 0.0108 µM.
As for `Cn1c(=O)n(-c2ccc(C[C@H](NC(=O)c3c(Cl)cccc3Cl)C(=O)O)cc2)c(=O)c2cc(CN3CCCCC3)ccc21` [Example 57], the IC50 is 0.0166 µM.
To `Cn1c(=O)n(-c2ccc(C[C@H](NC(=O)c3c(Cl)cccc3Cl)C(=O)O)cc2)c(=O)c2cc(CN3CCOCC3)ccc21` [Example 53] belongs 0.0233 µM; to `CNCc1ccc2c(=O)n(-c3ccc(C[C@H](NC(=O)c4c(Cl)cccc4Cl)C(=O)O)cc3)c(=O)n(C)c2c1` [Example 144, N-(2,6-dichlorobenzoyl)-4-[7-methylaminomethyl-1-methyl-2,4-quinazoline-dione-3-yl]-L-phenylalanine], 0.0049 µM; to `CN(C)CCN(C)c1cc2c(cc1F)c(=O)n(-c1ccc(C[C@H](NC(=O)c3c(Cl)cccc3Cl)C(=O)O)cc1)c(=O)n2C` [Example 13], 0.0055 µM.
As to `CCN(CC)CCN(C)c1cc2c(cc1F)c(=O)n(-c1ccc(C[C@H](NC(=O)c3c(Cl)cccc3Cl)C(=O)O)cc1)c(=O)n2C` [Example 14], the IC50 is 0.0058 µM.
Take `Cn1c(=O)n(-c2ccc(C[C@H](NC(=O)c3c(Cl)cccc3Cl)C(=O)O)cc2)c(=O)c2cc(C(N)=O)ccc21` [Example 50]: the IC50 was found to be 0.0154 µM.
To `CN(C)CCN(C)c1ccc2c(c1)c(=O)n(-c1ccc(C[C@H](NC(=O)c3c(Cl)cccc3Cl)C(=O)O)cc1)c(=O)n2C` [Example 4] belongs 0.014 µM; to `CN(C)CCOc1ccc2c(c1)c(=O)n(-c1ccc(C[C@H](NC(=O)c3c(Cl)cccc3Cl)C(=O)O)cc1)c(=O)n2C` [Example 142, N-(2,6-dichlorobenzoyl)-4-[6-(2-dimethylaminoethoxy)-1-methyl-2,4-quinazoline-dione-3-yl]-L-phenylalanine], 0.0147 µM.
Take `Cn1c(=O)n(-c2ccc(C[C@H](NC(=O)c3c(Cl)cccc3Cl)C(=O)O)cc2)c(=O)c2ccc(N3CCOCC3)cc21` [Example 39, N-(2,6-dichlorobenzoyl)-4-[1-methyl-7-(morpholine-4-yl)-2,4-quinazoline-dione-3-yl]-L-phenylalanine trifluoroacetate]: the IC50 was 0.0065 µM.
`CN1CCN(c2ccc3c(c2)c(=O)n(-c2ccc(C[C@H](NC(=O)c4c(Cl)cccc4Cl)C(=O)O)cc2)c(=O)n3C)CC1` [Example 2]: the IC50 amounted to 0.0229 µM.
To `Cn1c(=O)n(-c2ccc(C[C@H](NC(=O)c3c(Cl)cccc3Cl)C(=O)O)cc2)c(=O)c2cc(CNC3CC3)ccc21` [Example 192] belongs 0.0179 µM; to `CCN(CC)CCN(C)c1ccc2c(c1)c(=O)n(-c1ccc(C[C@H](NC(=O)c3c(Cl)cccc3Cl)C(=O)O)cc1)c(=O)n2C` [Example 5], 0.0108 µM; to `CCN(CC)Cc1ccc2c(c1)c(=O)n(-c1ccc(C[C@H](NC(=O)c3c(Cl)cccc3Cl)C(=O)O)cc1)c(=O)n2C` [Example 55], 0.0142 µM.
Regarding `Cn1c(=O)n(-c2ccc(C[C@H](NC(=O)c3c(Cl)cccc3Cl)C(=O)O)cc2)c(=O)c2ncccc21` [Example 47, N-(2,6-dichlorobenzoyl)-4-[1-methyl-2,4-dioxo-1,2,3,4-tetrahydro-3-(2H)pyrido[3,2-d]pyrimidinyl]-L-phenylalanine], the concentration for half-maximal inhibition (IC50) was found to be 0.0157 µM.
For `CCC(C)NCc1ccc2c(c1)c(=O)n(-c1ccc(C[C@H](NC(=O)c3c(Cl)cccc3Cl)C(=O)O)cc1)c(=O)n2C` (some centres unmarked) [Example 198], the IC50 came to 0.0057 µM.
For `CCNc1ccc2c(=O)n(-c3ccc(C[C@H](NC(=O)c4c(Cl)cccc4Cl)C(=O)O)cc3)c(=O)n(C)c2c1` [Example 19], the IC50 turned out to be 0.0235 µM.
For the compound `Cn1c(=O)n(-c2ccc(C[C@H](NC(=O)c3c(Cl)cccc3Cl)C(=O)O)cc2)c(=O)c2cc(S(C)(=O)=O)ccc21` [Example 38, N-(2,6-dichlorobenzoyl)-4-[1-methyl-6-(methylsulfonyl)-2,4-quinazoline-dione-3-yl]-L-phenylalanine], the 50% inhibitory concentration (IC50) stood at 0.0124 µM.
Consider `CCCNCc1ccc2c(=O)n(-c3ccc(C[C@H](NC(=O)c4c(Cl)cccc4Cl)C(=O)O)cc3)c(=O)n(C)c2c1` [Example 145, N-(2,6-dichlorobenzoyl)-4-[1-methyl-7-propylaminomethyl-2,4-quinazoline-dione-3-yl]-L-phenylalanine], for which the IC50 came out at 0.0038 µM.
Regarding `CCNCCCc1ccc2c(c1)c(=O)n(-c1ccc(C[C@H](NC(=O)c3c(Cl)cccc3Cl)C(=O)O)cc1)c(=O)n2C` [Example 208], the IC50 came to 0.0134 µM.
To `CCN(C)c1ccc2c(c1)c(=O)n(-c1ccc(C[C@H](NC(=O)c3c(Cl)cccc3Cl)C(=O)O)cc1)c(=O)n2C` [Example 139, N-(2,6-dichlorobenzoyl)-4-[6-ethylmethylamino-1-methyl-2,4-quinazoline-dione-3-yl]-L-phenylalanine] belongs 0.0084 µM.
To `Cn1c(=O)n(-c2ccc(C[C@H](NC(=O)c3c(Cl)cccc3Cl)C(=O)O)cc2)c(=O)c2cc(CN)ccc21` [Example 191] belongs 0.0129 µM; to `CNCCc1ccc2c(c1)c(=O)n(-c1ccc(C[C@H](NC(=O)c3c(Cl)cccc3Cl)C(=O)O)cc1)c(=O)n2C` [Example 230, N-(2,6-dichlorobenzoyl)-4-{1-methyl-6-[2-(methylamino)ethyl]-2,4-dioxo-1,2,3,4-tetrahydroquinazoline-3(2H)-yl}-L-phenylalanine], 0.0117 µM; to `CC(C)NCc1ccc2c(c1)c(=O)n(-c1ccc(C[C@H](NC(=O)c3c(Cl)cccc3Cl)C(=O)O)cc1)c(=O)n2C` [Example 194], 0.0069 µM.

These data come from patent publication US7345049B2, “Phenylalanine derivatives” (Ajinomoto Co., Inc., priority 2003, dated 2008).
